Experimental data published in patent US10702525B1, “Pyrimidine derivatives as anti-diabetic agents” (UNITED ARAB EMIRATES UNIVERSITY, priority 2019, dated 2020).

Assays:
[1] = system: Streptozotocin-injected (STZ) diabetic rats; assay: Fasting blood glucose level of STZ diabetic rats; format: in vivo, rat; conditions: for reduction in blood glucose level compared to control diabetic groups: 6 and 8 hours after treatment, n=6
Text: These symptoms indicate the development of diabetes characterized by chronic and persistently elevated plasma glucose level. STZ induces diabetes by selectively destroying the insulin producing pancreatic endocrine cells. Decreased body weight in STZ-induced diabetic rats is believed to be caused by dehydration, and by breakdown and catabolism of fats and proteins. Increased catabolic reactions upon administering STZ result in muscle wasting, and subsequently, body weight loss.
Compounds 81c, 81f, 82c, and 82d, synthesized as described in Examples 1, 2, 5, and 6 were orally administrated to the treated groups of diabetic rats at a dose of 1.0 μM/kg. Fasting glucose levels in treated and control rat blood were followed over 8.0 hours. […] Compounds 82c and 82d were also tested in vivo (FIGS. 1C, 1D). […] In FIGS. 1A-1D the results are means±SEM, where n=6 rats; *P<0.05, **P<0.01, and ***P<0.001 vs. the STZ diabetic control group.

βTC6 cells [2] = assay: Insulin secretion from βTC6 cell line (insulin Sandwich ELISA); format: cell-based, murine; conditions: for insulin secretion compared to the basal control: absence of glucose; for insulin secretion compared to the basal control / insulin secretion compared to basal insulin secretion and to insulin secretion in the presence of glucose: 10^−15 M, 10^−12 M and 10^−9 M; for insulin secretion compared to the basal control / insulin secretion compared to basal insulin secretion and to insulin secretion in the presence of glucose / glucose-stimulated insulin release compared to basal controls (summary statement): βTC6 cells; for insulin secretion compared to basal insulin secretion and to insulin secretion in the presence of glucose: presence of 2.8 mM glucose
Protocol: Secretion of insulin by βTC6 cells was measured using the high range insulin Sandwich ELISA kit.

βTC6 cells [3] = assay: Glucose uptake assay (2-NBDG) in βTC6 cells; format: cell-based, murine; conditions: 10 μM sample, 450 μM 2-NBDG, ten minutes
Protocol: The glucose uptake assay was performed with a cell-based assay kit by incubating 450 μM 2-[N-(7-nitrobenz-2-oxa-1,3-diaxol-4-yl)amino]-2-deoxyglucose (2-NBDG, a fluorescently labelled deoxyglucose analog) and a 10 μM sample of the reference drug or the test compound with βTC6 cells for ten minutes and subsequently measuring the fluorescence at excitation and emission wavelengths of 485 nm and 535 nm, respectively, with a TECAN infinite M200 micro plate reader.

[4] = oral, 1.0 μM/kg, STZ diabetic rats

Row | SMILES | fasting blood glucose levels in diabetic rat models (summary statement) [1] | anti-diabetic potency ranking ([1]; in vivo and in vitro results taken together) | reduction in blood glucose level compared to control diabetic groups [1, 4] | potency in reducing the blood glucose level ([1]; oral, 1.0 μM/kg, at 8 hours, STZ diabetic rats) | insulin secretion compared to the basal control (βTC6 cells [2]) | insulin secretion compared to basal insulin secretion and to insulin secretion in the presence of glucose (βTC6 cells [2]) | insulin secretion effect relative to exenatide (βTC6 cells [2]; βTC6 cell line) | glucose-stimulated insulin release compared to basal controls (summary statement) (βTC6 cells [2]) | glucose uptake compared to the standard reference exenatide (βTC6 cells [3]) | melting point [°C] | effect on blood glucose levels (not statistically significant) ([1]; oral, 1.0 μM/kg, followed over 8.0 hours, STZ diabetic rats)
1 | CN(CCO)c1ccnc(Cl)n1 [Compound 81c, 2-[(2′-Chloropyrimidin-4′-yl)-methylamino]ethanol] | decrease fasting blood glucose levels | most potent anti-diabetic compound | significant reduction in blood glucose level | high potency in reducing the blood glucose level | significantly stimulated insulin secretions | stimulated insulin secretion significantly | comparable effects to exenatide | increase glucose-stimulated insulin release | remarkable potential to flush glucose into the βTC6 cells | 136 | –
2 | OCCNc1ccnc(Cl)n1 [Compound 81f, 2-[(2′-Chloropyrimidin-4′-yl)amino]ethanol] | decrease fasting blood glucose levels | – | significant reduction in blood glucose level | – | significantly stimulated insulin secretions | stimulated insulin secretion significantly | – | increase glucose-stimulated insulin release | remarkable potential to flush glucose into the βTC6 cells | 116 to 117 | –
3 | CN(CCO)c1cc(Cl)ncn1 [Compound 82c, 2-[(6′-Chloropyrimidin-4′-yl)(methylamino)]ethanol] | decrease fasting blood glucose levels | – | statistically significant reduction in blood glucose level | – | significantly stimulated insulin secretions | stimulated insulin secretion significantly | – | increase glucose-stimulated insulin release | remarkable potential to flush glucose into the βTC6 cells | – | –
4 | Clc1cc(N2CCOCC2)ncn1 [Compound 82d, 4-(6′-Chloropyrimidin-4′-yl)morpholine] | decrease fasting blood glucose levels | – | – | – | – | – | – | increase glucose-stimulated insulin release | – | – | reduced blood glucose levels
